Source: ChEMBL document CHEMBL5143554, “Discovery of phenylpyrrolidine derivatives as a novel class of retinol binding protein 4 (RBP4) reducers” (Bioorg Med Chem, 2022)

Experiments:
[1] = Inhibition of His-tagged human RBP4- biotin immobilized TTR (unknown origin) protein-protein interaction in presence of retinol by ELISA
[2] = Inhibition of His-tagged mouse RBP4- biotin immobilized TTR (unknown origin) protein-protein interaction in presence of retinol by ELISA
[3] = Cmax in ICR mouse at 1 mg/kg, po; assay type: ADME, organism-based; design: dose 1 mg/kg, route po; conditions: in vivo
[4] = Oral bioavilability in ICR mouse at 1 mg/kg; assay type: ADME, organism-based; conditions: in vivo
[5] = Reduction in blood RBP4 level in C57BL/6J mouse assessed as RBP4 leve in blood at 10 mg/kg, po after 4 hrs by ELISA (reference value: 100%); assay type: functional; design: scale not given: the % may be the effect or the level left
[6] = AUC in ICR mouse at 1 mg/kg, po; assay type: ADME, organism-based; design: dose 1 mg/kg, route po; conditions: in vivo
[7] = Reduction in blood RBP4 level in C57BL/6J mouse assessed as RBP4 leve in blood at 10 mg/kg, po after 7 hrs by ELISA (reference value: 100%); assay type: functional; design: scale not given: the % may be the effect or the level left
[8] = Reduction in blood RBP4 level in C57BL/6J mouse assessed as RBP4 leve in blood at 10 mg/kg, po after 24 hrs by ELISA (reference value: 100%); assay type: functional; design: scale not given: the % may be the effect or the level left
[9] = Reduction in blood RBP4 level in C57BL/6J mouse assessed as RBP4 leve in blood at 0.3 mg/kg, po after 7 hrs by ELISA (reference value: 100 +/- 3.9%); assay type: functional; design: scale not given: the % may be the effect or the level left
[10] = Reduction in blood RBP4 level in C57BL/6J mouse assessed as RBP4 leve in blood at 1 mg/kg, po after 4 hrs by ELISA (reference value: 100 +/- 9.8%); assay type: functional; design: scale not given: the % may be the effect or the level left
[11] = Reduction in blood RBP4 level in C57BL/6J mouse assessed as RBP4 leve in blood at 1 mg/kg, po after 24 hrs by ELISA (reference value: 100 +/- 9.8%); assay type: functional; design: scale not given: the % may be the effect or the level left
[12] = Reduction in blood RBP4 level in C57BL/6J mouse assessed as RBP4 leve in blood at 3 mg/kg, po after 7 hrs by ELISA (reference value: 100 +/- 12%); assay type: functional; design: scale not given: the % may be the effect or the level left
[13] = Reduction in blood RBP4 level in C57BL/6J mouse assessed as RBP4 leve in blood at 0.3 mg/kg, po after 24 hrs by ELISA (reference value: 100 +/- 3.9%); assay type: functional; design: scale not given: the % may be the effect or the level left
[14] = Reduction in blood RBP4 level in C57BL/6J mouse assessed as RBP4 leve in blood at 3 mg/kg, po after 4 hrs by ELISA (reference value: 100 +/- 12%); assay type: functional; design: scale not given: the % may be the effect or the level left
[15] = Reduction in blood RBP4 level in C57BL/6J mouse assessed as RBP4 leve in blood at 3 mg/kg, po after 24 hrs by ELISA (reference value: 100 +/- 12%); assay type: functional; design: scale not given: the % may be the effect or the level left
[16] = Reduction in blood RBP4 level in C57BL/6J mouse assessed as RBP4 leve in blood at 0.3 mg/kg, po after 4 hrs by ELISA (reference value: 100 +/- 3.9%); assay type: functional; design: scale not given: the % may be the effect or the level left
Mus musculus = assay: Reduction in blood RBP4 level in C57BL/6J mouse assessed as RBP4 leve in blood at 0.3 to 10 mg/kg, po after 4 to 24 hrs hrs by ELISA (reference value: 100%); assay type: functional, organism-based; conditions: dose 0.3-10 mg/kg, time 4-24 hrs, DDE = dose-dependent effect
[17] = Reduction in blood RBP4 level in C57BL/6J mouse assessed as RBP4 leve in blood at 1 mg/kg, po after 7 hrs by ELISA (reference value: 100 +/- 9.8%); assay type: functional; design: scale not given: the % may be the effect or the level left

IC50 [1] | IC50 [2] | SMILES | other results
520 nM | 2400 nM | O=C(O)COC1CCN(c2cccc(C(F)(F)F)c2)C1 (racemic) | 
190 nM | 1200 nM | O=C(O)COC1CCN(c2cc(F)cc(C(F)(F)F)c2)C1 (racemic) | 
16 nM | 100 nM | O=C(O)COC1CCN(c2cc(C(F)(F)F)cc(C(F)(F)F)c2)C1 (racemic) | 
21 nM | 130 nM | O=C(O)CO[C@@H]1CCN(c2cc(C(F)(F)F)cc(C(F)(F)F)c2)C1 | Cmax [3]: 2920 ng/mL; bioavailability [4]: 51%; Activity [5]: 42.2%; AUC [6]: 17900 ng·h/mL; Activity [7]: 40.5%; Activity [8]: 38.6%
28 nM | 110 nM | O=C(O)CO[C@H]1CCN(c2cc(C(F)(F)F)cc(C(F)(F)F)c2)C1 | Activity [9]: 56.6%; Cmax [3]: 2910 ng/mL; Activity [10]: 51.6%; Activity [11]: 53%; bioavailability [4]: 58%; Activity [12]: 41.5%; Activity [13]: 75%; Activity [14]: 50.4%; Activity [5]: 39.5%; AUC [6]: 22000 ng·h/mL; Activity [15]: 43.6%; Activity [16]: 64.6%; Activity (Mus musculus): Dde; Activity [7]: 39.6%; Activity [8]: 37.5%; Activity [17]: 42.4%
96 nM | 420 nM | O=C(O)COC1CCN(c2cc(Cl)cc(C(F)(F)F)c2)C1 (racemic) | 
82 nM | 870 nM | COc1cc(N2CCC(OCC(=O)O)C2)cc(C(F)(F)F)c1 (racemic) | 

More lines, now with the values behind:

SMILES | IC50 [1] | IC50 [2] | other results
O=C(O)CCc1nc(-c2cc(C(F)(F)F)cc(C(F)(F)F)c2)co1 | 24 nM | 420 nM | 
O=C(O)C1CCN(c2cc(C(F)(F)F)cc(C(F)(F)F)c2)C1 (racemic) | 1000 nM | 5900 nM | 
O=C(O)CC1CCN(c2cc(C(F)(F)F)cc(C(F)(F)F)c2)C1 (racemic) | 42 nM | 300 nM | 
O=C(O)CCC1CN(c2cc(C(F)(F)F)cc(C(F)(F)F)c2)C1 | 40 nM | 740 nM | 
O=C(O)CCc1ncc(-c2cc(C(F)(F)F)cc(C(F)(F)F)c2)o1 | 130 nM | 1200 nM | 
COC(=O)CO[C@H]1CCN(c2cc(C(F)(F)F)cc(C(F)(F)F)c2)C1 | 150 nM | 200 nM | 
O=C(O)COC1CCN(c2ccc(F)c(C(F)(F)F)c2)C1 (racemic) | 230 nM | 1600 nM | 
O=C(O)CCc1cnc(-c2cc(C(F)(F)F)cc(C(F)(F)F)c2)o1 | 6000 nM | > 30000 nM | 
O=C(O)CCC1CCN(c2cc(C(F)(F)F)cc(C(F)(F)F)c2)C1 (racemic) | 51 nM | 220 nM | 
O=C(O)CCC1CCN(c2cc(C(F)(F)F)cc(C(F)(F)F)c2)CC1 | 270 nM | 3800 nM | 
O=C(O)COC1CCN(c2cccc(C(F)(F)F)c2F)C1 (racemic) | 240 nM | 1500 nM | 
FC(F)(F)c1cc(N2CCC(OCc3nnn[nH]3)C2)cc(C(F)(F)F)c1 (racemic) | 48 nM | 270 nM | 
